Measured values reported in PubChem BioAssay (NCI).
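Growth conditions: 96-well plates. Treatment: test compound, 48 hours, 5 concentrations. Analysis: linear interpolation between bracketing concentrations; unreached endpoints set to highest concentration. The concentration for 50% growth inhibition is given as GI50. Definition used: TGI = concentration required for complete inhibition of growth.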

Key:
Test in all cases: DTP human tumour cell line panel, 48 h
[1] = tested on: HL-60(TB) leukemia
[2] = tested on: SK-MEL-2 melanoma
[3] = tested on: SN12C renal
[4] = tested on: ACHN renal
[5] = tested on: MDA-MB-231 breast
[6] = tested on: HOP-92 NSCLC
[7] = tested on: TK-10 renal
[8] = tested on: NCI-H23 lung
[9] = tested on: SF-268 CNS

O=C(NCCCCCCO)c1cccc2cc3ccccc3nc12
TGI [1]: 74.8 µM
TGI [2]: 30.1 µM
TGI [3]: 49.5 µM
TGI [4]: 39.2 µM
TGI [5]: 40 µM
TGI [6]: > 100 µM
TGI [7]: 34.6 µM

CC(C)(Cc1ccccc1)N1C(=O)N1C(C)(C)Cc1ccccc1
TGI [1]: 41.7 µM
TGI [2]: 48.4 µM
TGI [3]: > 100 µM
TGI [8]: 65.5 µM
TGI [5]: > 100 µM
TGI [9]: > 100 µM
TGI [7]: > 100 µM

COC(=O)[C@@H]1C=C[C@H](NC(C)=O)C1
TGI [2]: > 100 µM
TGI [3]: > 100 µM
TGI [8]: > 100 µM
TGI [5]: > 100 µM
TGI [6]: > 100 µM
TGI [7]: > 100 µM

O=c1oc2cccnc2n1CCCCN1CCN(c2ccccc2)CC1
TGI [1]: > 100 µM
TGI [2]: > 100 µM
TGI [4]: > 100 µM
TGI [8]: > 100 µM
TGI [5]: > 100 µM
TGI [9]: > 100 µM
TGI [6]: > 100 µM
TGI [7]: > 100 µM

O=[N+]([O-])c1cc(F)ccc1Sc1ccccc1
TGI [1]: > 10 µM
TGI [2]: > 10 µM
TGI [3]: > 10 µM
TGI [4]: > 10 µM
TGI [8]: > 10 µM
TGI [5]: > 10 µM
TGI [9]: > 10 µM
TGI [6]: > 10 µM
TGI [7]: > 10 µM

CC(=O)NC(=O)NC1=NCCC(=O)N1CCc1c[nH]c2ccccc12
TGI [1]: > 100 µM
TGI [2]: > 100 µM
TGI [3]: > 100 µM
TGI [4]: > 100 µM
TGI [8]: > 100 µM
TGI [5]: > 100 µM
TGI [9]: > 100 µM
TGI [6]: > 100 µM
TGI [7]: > 100 µM

C=CCc1ccccc1C1CC2(C(=O)OC)OC1C(C(=O)OC)=C2C(=O)OC (configuration not stated)
TGI [1]: > 10 µM
TGI [2]: > 10 µM
TGI [3]: > 10 µM
TGI [4]: > 10 µM
TGI [8]: > 10 µM
TGI [5]: > 10 µM
TGI [9]: > 10 µM
TGI [7]: > 10 µM

NNC(=O)Cn1ccnn1
TGI [1]: > 100 µM
TGI [2]: > 100 µM
TGI [3]: > 100 µM
TGI [4]: > 100 µM
TGI [8]: > 100 µM
TGI [5]: > 100 µM
TGI [9]: > 100 µM
TGI [6]: > 100 µM
TGI [7]: > 100 µM

O=c1c2cc(Br)ccc2ncn1COCc1ccccc1
TGI [2]: > 100 µM
TGI [4]: 74 µM
TGI [6]: > 100 µM
TGI [7]: > 100 µM

CC(=O)O[C@H]1CCC2[C@@H]3CCC4NC(=O)C(C#N)C[C@]4(C)C3CC[C@@]21C (some centres not stated)
TGI [1]: > 10 µM
TGI [2]: > 10 µM
TGI [3]: > 10 µM
TGI [4]: > 10 µM
TGI [8]: > 10 µM
TGI [5]: > 10 µM
TGI [9]: > 10 µM
TGI [6]: > 10 µM
TGI [7]: > 10 µM

N#C/C(=C1/c2cc([N+](=O)[O-])ccc2-c2c1cc([N+](=O)[O-])cc2[N+](=O)[O-])N1CCCCC1
TGI [2]: > 100 µM
TGI [3]: > 100 µM
TGI [4]: > 100 µM
TGI [8]: > 100 µM
TGI [5]: > 100 µM
TGI [9]: > 100 µM
TGI [7]: > 100 µM

O=c1[nH]c2cc([N+](=O)[O-])c(Nc3c4ccccc4nc4ccccc34)c([N+](=O)[O-])c2[nH]1
TGI [1]: 9.39 µM
TGI [2]: 8.6 µM
TGI [3]: 9.1 µM
TGI [4]: 16.7 µM
TGI [8]: 16 µM
TGI [5]: 17.5 µM
TGI [9]: 10.5 µM
TGI [6]: 18.5 µM
TGI [7]: 6.85 µM

O=NN1CCCS1(=O)=O
TGI [1]: > 100 µM
TGI [3]: > 100 µM
TGI [4]: > 100 µM
TGI [8]: > 100 µM
TGI [5]: > 100 µM
TGI [9]: > 100 µM
TGI [7]: > 100 µM

COc1ccc(OC)c(C[P+](c2ccccc2)(c2ccccc2)c2ccccc2)c1
TGI [1]: 3.29 µM
TGI [3]: > 100 µM
TGI [4]: > 64.2 µM
TGI [8]: 11.8 µM
TGI [5]: 34.9 µM
TGI [9]: > 100 µM
TGI [6]: 4.39 µM
TGI [7]: > 92.6 µM

COc1cccc(NC(=O)CC(=O)N2N=C(C)C(N=Nc3ccc(C(=O)O)cc3)C2=O)c1 (configuration not stated)
TGI [1]: > 100 µM
TGI [2]: > 100 µM
TGI [3]: > 100 µM
TGI [4]: > 100 µM
TGI [8]: > 100 µM
TGI [5]: > 100 µM
TGI [9]: > 100 µM
TGI [7]: > 100 µM

COc1ccc(C2SCC(=O)N2NC(=O)C(C)Oc2ccc(Cl)cc2Cl)cc1 (configuration not stated)
TGI [1]: 34.8 µM
TGI [2]: > 100 µM
TGI [3]: > 100 µM
TGI [4]: > 100 µM
TGI [8]: > 100 µM
TGI [5]: 81 µM
TGI [9]: > 100 µM
TGI [6]: 63.6 µM
TGI [7]: > 100 µM

Cc1ccc(NC2=N/C(=C/c3ccco3)C(Cl)=N2)cc1
TGI [1]: > 100 µM
TGI [2]: > 100 µM
TGI [3]: > 100 µM
TGI [4]: > 100 µM
TGI [8]: > 100 µM
TGI [5]: > 100 µM
TGI [9]: > 100 µM
TGI [6]: > 100 µM
TGI [7]: > 100 µM

C=CC(OC(C)=O)c1ccc(OC(C)=O)cc1 (configuration not stated)
TGI [1]: 18.6 µM
TGI [2]: 12 µM
TGI [4]: 6.26 µM
TGI [8]: 37.3 µM
TGI [5]: 9.12 µM
TGI [9]: 10.7 µM
TGI [6]: 22.8 µM
TGI [7]: 4.99 µM

O=C1/C(=C/c2ccc(O)cc2)CCC1CNc1ccccc1 (configuration not stated)
TGI [1]: 4.91 µM
TGI [3]: 29.2 µM
TGI [4]: 24.8 µM
TGI [8]: 30.4 µM
TGI [5]: 30.9 µM
TGI [9]: 28.2 µM
TGI [6]: 27.9 µM
TGI [7]: 24.3 µM

NC1c2c(Cl)sc(Cl)c2C(=O)C1O (configuration not stated)
TGI [1]: 30.1 µM
TGI [2]: > 100 µM
TGI [3]: 29.2 µM
TGI [4]: 99.6 µM
TGI [8]: 32.5 µM
TGI [5]: > 100 µM
TGI [9]: > 100 µM
TGI [6]: 84.3 µM
TGI [7]: > 100 µM

CC1(C)C=[N+]([O-])C(C)(C)N1O
TGI [1]: > 10 µM
TGI [2]: > 10 µM
TGI [3]: > 10 µM
TGI [4]: > 10 µM
TGI [8]: > 10 µM
TGI [5]: > 10 µM
TGI [9]: > 10 µM
TGI [6]: > 10 µM
TGI [7]: > 10 µM

COC(=O)C1CC23C=CCN4CC(C2C)C2(c5ccccc5NC12)C43 (configuration not stated)
TGI [1]: > 100 µM
TGI [2]: > 100 µM
TGI [3]: > 100 µM
TGI [4]: > 100 µM
TGI [8]: > 100 µM
TGI [5]: > 100 µM
TGI [9]: > 100 µM
TGI [6]: > 100 µM
TGI [7]: > 100 µM

Nn1c(Sc2nc3ccccc3c(=O)n2N)nc2ccccc2c1=O
TGI [2]: 14.3 µM
TGI [3]: 18.8 µM
TGI [4]: 26.4 µM
TGI [8]: 5.43 µM
TGI [5]: 24.4 µM
TGI [9]: 22.3 µM
TGI [6]: 29.3 µM
TGI [7]: 42.2 µM

Cc1c(C#N)c(=N)oc2ccccc12
TGI [1]: > 100 µM
TGI [2]: > 100 µM
TGI [3]: > 100 µM
TGI [4]: > 100 µM
TGI [8]: > 100 µM
TGI [5]: > 100 µM
TGI [9]: > 100 µM
TGI [6]: > 100 µM
TGI [7]: > 100 µM

C[PH+](c1nc2ccccc2nc1[PH+](C)C(C)(C)C)C(C)(C)C.C[PH+](c1nc2ccccc2nc1[PH+](C)C(C)(C)C)C(C)(C)C.[Au+].[Cl-] (configuration not stated)
GI50 [1]: 0.07 µM
TGI [1]: 1.02 µM
GI50 [2]: 0.0318 µM
TGI [2]: 0.0986 µM
GI50 [4]: 0.113 µM
TGI [4]: 0.835 µM
GI50 [8]: 0.0261 µM
TGI [8]: 0.104 µM
GI50 [9]: 0.0384 µM
TGI [9]: 1.35 µM
GI50 [6]: 0.0225 µM
TGI [6]: 0.0681 µM
GI50 [7]: 0.0431 µM
TGI [7]: 1.13 µM
